Data reported in article PMC2813863, “In Vivo Evaluation of α7 Nicotinic Acetylcholine Receptor Agonists [^11C]A-582941 and [^11C]A-844606 in Mice and Conscious Monkeys” (PLoS ONE, 2010).
“And” between values parts separate entries of the source, which are not always exact repeats. Equal entries are not always repeated. Where two headings read alike, the source gives them in different places.

Legend:
[1] = format: in vivo, mice; conditions: mice, i.v.
Protocol: Each tracer was intravenously injected into mice, and then the animals were killed by cervical dislocation at 1, 5, 15, 30 and 60 min after injection (n = 4). The body weight of the mice was 34.7±1.2 g. The injected doses of tracers were 2 MBq/0.049–0.051 nmol. Blood was collected by heart puncture and tissues were harvested. The carbon-11 in the samples was counted with an auto-gamma-counter (LKB Wallac Compu-gamma 1282CS, Turku, Finland) and the tissues were weighed. The tissue uptake of carbon-11 was expressed as the %ID/g.

[2] = format: in vivo, rhesus monkeys (Macaca mulatta); conditions: monkey
Protocol: Blood samples were centrifuged to separate the plasma, weighed, and subjected to radioactivity measurement. For metabolite analysis, methanol was added to some plasma samples, the resulting solutions were centrifuged, and the supernatants were developed with TLC plates (AL SIL G/UV; Whatman, Kent, UK) using a mobile phase of dichloromethane/diethyl ether/ethanol/triethylamine (20/20/2/2, v/v/v/v). At each sampling time point, the ratio of radioactivity in the unmetabolized fraction to that in the total plasma (metabolite plus unmetabolite) was determined using a phosphoimaging plate (BAS-1500 MAC; Fuji Film Co., Tokyo, Japan). The pTACs corrected for metabolite were obtained. The tTACs in each region of interest (ROI) in the brain were calculated as the %ID/ml or as a standardized uptake value (SUV), (activity/ml tissue)/(injected activity/g body weight). Using the tTACs and the metabolite-corrected pTAC, the V T for each tracer was evaluated by Logan graphical analysis.

[11CH3]N1CC2CN(c3ccc(-c4ccccc4)nn3)CC2C1 (stereo not shown) [[^11C]A-582941, 2-[^11C]Methyl-5-[6-phenylpyridazine-3-yl]octahydropyrrolo[3,4-c]pyrrole]
time of peak radioactivity in the brain [1]: 5 min
% Injected dose/g tissue, Blood ([1]; 1 min after injection): 1.84±0.43 % Injected dose/g tissue
% Injected dose/g tissue, Brain ([1]; 1 min after injection): 2.61±0.33 % Injected dose/g tissue
% Injected dose/g tissue, Heart ([1]; 1 min after injection): 4.33±0.82 % Injected dose/g tissue
% Injected dose/g tissue, Kidney ([1]; 1 min after injection): 13.87±1.58 % Injected dose/g tissue
% Injected dose/g tissue, Liver ([1]; 1 min after injection): 3.59±0.45 % Injected dose/g tissue
% Injected dose/g tissue, Lung ([1]; 1 min after injection): 18.09±4.18 % Injected dose/g tissue
% Injected dose/g tissue, Muscle ([1]; 1 min after injection): 2.02±0.34 % Injected dose/g tissue
% Injected dose/g tissue, Pancreas ([1]; 1 min after injection): 4.65±0.76 % Injected dose/g tissue
% Injected dose/g tissue, S. intestine ([1]; 1 min after injection): 3.13±0.51 % Injected dose/g tissue
% Injected dose/g tissue, Spleen ([1]; 1 min after injection): 2.70±0.31 % Injected dose/g tissue
% Injected dose/g tissue, Blood ([1]; 5 min after injection): 0.89±0.04 % Injected dose/g tissue
% Injected dose/g tissue, Brain ([1]; 5 min after injection): 3.92±0.49 % Injected dose/g tissue
% Injected dose/g tissue, Heart ([1]; 5 min after injection): 2.16±0.13 % Injected dose/g tissue
% Injected dose/g tissue, Kidney ([1]; 5 min after injection): 8.77±0.79 % Injected dose/g tissue
% Injected dose/g tissue, Liver ([1]; 5 min after injection): 10.52±0.69 % Injected dose/g tissue
% Injected dose/g tissue, Lung ([1]; 5 min after injection): 12.52±8.59 % Injected dose/g tissue
% Injected dose/g tissue, Muscle ([1]; 5 min after injection): 1.40±0.16 % Injected dose/g tissue
% Injected dose/g tissue, Pancreas ([1]; 5 min after injection): 7.47±0.54 % Injected dose/g tissue
% Injected dose/g tissue, S. intestine ([1]; 5 min after injection): 4.49±0.60 % Injected dose/g tissue
% Injected dose/g tissue, Spleen ([1]; 5 min after injection): 5.53±0.38 % Injected dose/g tissue
% Injected dose/g tissue, Blood ([1]; 15 min after injection): 0.76±0.06 % Injected dose/g tissue
% Injected dose/g tissue, Brain ([1]; 15 min after injection): 3.63±0.28 % Injected dose/g tissue
% Injected dose/g tissue, Heart ([1]; 15 min after injection): 1.72±0.17 % Injected dose/g tissue
% Injected dose/g tissue, Kidney ([1]; 15 min after injection): 6.02±0.97 % Injected dose/g tissue
% Injected dose/g tissue, Liver ([1]; 15 min after injection): 12.38±1.68 % Injected dose/g tissue
% Injected dose/g tissue, Lung ([1]; 15 min after injection): 7.02±0.10 % Injected dose/g tissue
% Injected dose/g tissue, Muscle ([1]; 15 min after injection): 1.06±0.09 % Injected dose/g tissue
% Injected dose/g tissue, Pancreas ([1]; 15 min after injection): 5.80±0.80 % Injected dose/g tissue
% Injected dose/g tissue, S. intestine ([1]; 15 min after injection): 4.61±0.60 % Injected dose/g tissue
% Injected dose/g tissue, Spleen ([1]; 15 min after injection): 5.13±0.72 % Injected dose/g tissue
% Injected dose/g tissue, Blood ([1]; 30 min after injection): 0.64±0.06 % Injected dose/g tissue
% Injected dose/g tissue, Brain ([1]; 30 min after injection): 2.68±0.29 % Injected dose/g tissue
% Injected dose/g tissue, Heart ([1]; 30 min after injection): 1.39±0.10 % Injected dose/g tissue
% Injected dose/g tissue, Kidney ([1]; 30 min after injection): 4.83±0.77 % Injected dose/g tissue
% Injected dose/g tissue, Liver ([1]; 30 min after injection): 9.87±0.80 % Injected dose/g tissue
% Injected dose/g tissue, Lung ([1]; 30 min after injection): 6.06±0.31 % Injected dose/g tissue
% Injected dose/g tissue, Muscle ([1]; 30 min after injection): 0.82±0.07 % Injected dose/g tissue
% Injected dose/g tissue, Pancreas ([1]; 30 min after injection): 4.68±0.51 % Injected dose/g tissue
% Injected dose/g tissue, S. intestine ([1]; 30 min after injection): 5.33±1.20 % Injected dose/g tissue
% Injected dose/g tissue, Spleen ([1]; 30 min after injection): 3.64±0.14 % Injected dose/g tissue
% Injected dose/g tissue, Blood ([1]; 60 min after injection): 0.57±0.05 % Injected dose/g tissue
% Injected dose/g tissue, Brain ([1]; 60 min after injection): 1.85±0.10 % Injected dose/g tissue
% Injected dose/g tissue, Heart ([1]; 60 min after injection): 1.02±0.08 % Injected dose/g tissue
% Injected dose/g tissue, Kidney ([1]; 60 min after injection): 3.74±0.20 % Injected dose/g tissue
% Injected dose/g tissue, Liver ([1]; 60 min after injection): 7.24±0.74 % Injected dose/g tissue
% Injected dose/g tissue, Lung ([1]; 60 min after injection): 4.13±0.15 % Injected dose/g tissue
% Injected dose/g tissue, Muscle ([1]; 60 min after injection): 0.66±0.05 % Injected dose/g tissue
% Injected dose/g tissue, Pancreas ([1]; 60 min after injection): 3.69±0.42 % Injected dose/g tissue
% Injected dose/g tissue, S. intestine ([1]; 60 min after injection): 4.53±1.21 % Injected dose/g tissue
% Injected dose/g tissue, Spleen ([1]; 60 min after injection): 2.89±0.90 % Injected dose/g tissue
percentage of the unchanged form in plasma ([2]; SSR180711-blocking condition (n = 1), 0.3 min): 93.2%
percentage of the unchanged form in plasma ([2]; SSR180711-blocking condition (n = 1), 0.7 min): 93.9%
percentage of the unchanged form in plasma ([2]; SSR180711-blocking condition (n = 1), 1.1 min): 93.0%
percentage of the unchanged form in plasma ([2]; SSR180711-blocking condition (n = 1), 6.0 min): 74.2%
percentage of the unchanged form in plasma ([2]; SSR180711-blocking condition (n = 1), 10 min): 56.7%
percentage of the unchanged form in plasma ([2]; SSR180711-blocking condition (n = 1), 30 min): 28.3%
percentage of the unchanged form in plasma ([2]; SSR180711-blocking condition (n = 1), 45 min): 23.2%
percentage of the unchanged form in plasma ([2]; SSR180711-blocking condition (n = 1), 60 min): 20.4%
percentage of the unchanged form in plasma ([2]; SSR180711-blocking condition (n = 1), 75 min): 22.2%
percentage of the unchanged form in plasma ([2]; SSR180711-blocking condition (n = 1), 90 min): 15.9%
percentage of the unchanged form in plasma ([2]; baseline, 10 min): 71.6±4.1%
percentage of the unchanged form in plasma ([2]; baseline, 30 min): 42.8±7.8% and 42.8%
percentage of the unchanged form in plasma ([2]; baseline, 45 min): 34.0±7.4%
percentage of the unchanged form in plasma ([2]; baseline, 60 min): 26.9±5.3%
percentage of the unchanged form in plasma ([2]; baseline, 75 min): 23.0±3.4%
percentage of the unchanged form in plasma ([2]; baseline, 90 min): 19.2±2.6%
